Source: ChEMBL document CHEMBL5634161, “Discovery of benzamide-based PI3K/HDAC dual inhibitors with marked pro-apoptosis activity in lymphoma cells” (Eur J Med Chem, 2023)

Key:
Histone deacetylase 7 = Histone deacetylase 7 (Homo sapiens, UniProt Q8WUI4); experiment: Inhibition of HDAC7 (unknown origin) using Boc-Lys(acetyl)-AMC as substrate preincubated for 1 hrs followed by substrate addition and measured after 2 hrs by spectrophotometer based fluorometric assay
hERG = hERG (Homo sapiens, UniProt Q12809); experiment: Inhibition of hERG transfected in CHO cells at 30 uM by manual patch-clamp assay relative to control; format: toxicity, cell-based; conditions: CHO cells transfected with hERG
CYP2D6 = CYP2D6 (Homo sapiens, UniProt P10635); experiment: Inhibition of CYP2D6 in human liver microsomes using bufuralol as substrate at 10 uM in presence of NADPH regenerating system by LC-MS/MS analysis relative to control; format: ADME, Microsome; conditions: probe bufuralol
Chain of CYP2D6 (P10635 whole entry): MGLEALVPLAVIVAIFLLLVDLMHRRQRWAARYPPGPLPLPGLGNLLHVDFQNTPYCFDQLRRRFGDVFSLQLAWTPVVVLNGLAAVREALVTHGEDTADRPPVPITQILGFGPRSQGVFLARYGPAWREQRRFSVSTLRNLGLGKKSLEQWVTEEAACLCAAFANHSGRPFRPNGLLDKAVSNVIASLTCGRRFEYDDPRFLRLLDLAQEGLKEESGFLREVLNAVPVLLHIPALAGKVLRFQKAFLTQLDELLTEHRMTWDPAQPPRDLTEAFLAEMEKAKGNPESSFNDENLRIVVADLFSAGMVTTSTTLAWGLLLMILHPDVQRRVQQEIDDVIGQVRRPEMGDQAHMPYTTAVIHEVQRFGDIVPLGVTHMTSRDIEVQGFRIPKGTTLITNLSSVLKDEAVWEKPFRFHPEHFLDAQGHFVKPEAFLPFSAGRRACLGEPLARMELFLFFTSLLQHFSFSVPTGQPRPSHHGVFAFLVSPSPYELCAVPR

Histone deacetylase 5 = Histone deacetylase 5 (Homo sapiens, UniProt Q9UQL6); experiment: Inhibition of HDAC5 (unknown origin) using Boc-Lys(acetyl)-AMC as substrate preincubated for 1 hrs followed by substrate addition and measured after 2 hrs by spectrophotometer based fluorometric assay
Chain of Histone deacetylase 5 (Q9UQL6 whole entry): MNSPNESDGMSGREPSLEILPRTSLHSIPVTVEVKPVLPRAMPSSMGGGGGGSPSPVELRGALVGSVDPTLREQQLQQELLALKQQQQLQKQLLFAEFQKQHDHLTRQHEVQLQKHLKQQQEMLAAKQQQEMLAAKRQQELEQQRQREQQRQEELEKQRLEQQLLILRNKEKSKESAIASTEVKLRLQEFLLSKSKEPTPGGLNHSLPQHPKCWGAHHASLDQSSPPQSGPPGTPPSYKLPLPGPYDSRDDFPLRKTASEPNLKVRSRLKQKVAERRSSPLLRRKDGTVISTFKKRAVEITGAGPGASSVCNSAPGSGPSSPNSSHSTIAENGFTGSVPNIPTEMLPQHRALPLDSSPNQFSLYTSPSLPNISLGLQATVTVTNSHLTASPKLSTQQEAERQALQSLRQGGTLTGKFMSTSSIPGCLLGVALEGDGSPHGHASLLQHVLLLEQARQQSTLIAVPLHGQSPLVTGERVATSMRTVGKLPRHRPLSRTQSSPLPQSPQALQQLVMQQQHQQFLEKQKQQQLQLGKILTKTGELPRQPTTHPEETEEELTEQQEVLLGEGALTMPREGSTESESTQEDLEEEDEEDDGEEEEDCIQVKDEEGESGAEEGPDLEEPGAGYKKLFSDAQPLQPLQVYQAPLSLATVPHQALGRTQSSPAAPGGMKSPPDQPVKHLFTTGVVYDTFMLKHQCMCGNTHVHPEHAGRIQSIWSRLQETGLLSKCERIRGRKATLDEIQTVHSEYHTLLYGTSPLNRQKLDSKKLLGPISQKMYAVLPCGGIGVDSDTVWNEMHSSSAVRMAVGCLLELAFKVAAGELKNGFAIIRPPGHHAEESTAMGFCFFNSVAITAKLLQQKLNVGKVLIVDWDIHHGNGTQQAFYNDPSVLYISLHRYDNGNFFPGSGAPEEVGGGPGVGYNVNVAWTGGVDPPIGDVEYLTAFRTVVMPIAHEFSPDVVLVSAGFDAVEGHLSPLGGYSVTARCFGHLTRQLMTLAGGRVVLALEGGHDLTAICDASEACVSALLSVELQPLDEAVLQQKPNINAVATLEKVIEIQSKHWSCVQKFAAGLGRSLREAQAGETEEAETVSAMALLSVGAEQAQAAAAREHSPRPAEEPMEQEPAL

[1] = Cytotoxicity against human HL7702 cells incubated for 48 hrs by resazurin dye based fluorescence micro plate reader analysis; format: toxicity, cell-based; conditions: HL7702 (L02) cells
[2] = Stability in rat liver microsomes assessed as compound remaining at 0.5 mM preincubated for 5 mins followed by NADPH addition and measured after 45 mins by LC-MS/MS analysis; format: ADME, Microsome; conditions: time 50 min, read-out: Stability
JeKo-1 [3] = experiment: Inhibition of class 1 HDAC in human JeKo-1 cells assessed as increase in histone H3 acetylation incubated for 24 hrs by Western blot analysis; format: cell-based; conditions: dose 0.25-1 µM
CYP2C19 = CYP2C19 (Homo sapiens, UniProt P33261); experiment: Inhibition of CYP2C19 in human liver microsomes using S-mephenytoin as substrate at 10 uM in presence of NADPH regenerating system by LC-MS/MS analysis relative to control; format: ADME, Microsome; conditions: probe S-mephenytoin
[4] = target: Phosphatidylinositol 4,5-bisphosphate 3-kinase catalytic subunit alpha isoform (Homo sapiens, UniProt P42336); experiment: Inhibition of PI3Kalpha (unknown origin) using PIP2 as substrate incubated for 1 hrs in presence of ATP by ADP-Glo kinase assay
JeKo-1 [5] = experiment: Induction of apoptosis in human JeKo-1 cells assessed as viable cells at 0.5 uM incubated for 48 hrs by Annexin-V/FITC and PI staining based flow cytometric analysis (reference value: 94.1%); format: functional; conditions: read-out: Activity
JeKo-1 [6] = experiment: Induction of apoptosis in human JeKo-1 cells assessed as viable cells at 1 uM incubated for 48 hrs by Annexin-V/FITC and PI staining based flow cytometric analysis (reference value: 94.1%); format: functional; conditions: read-out: Activity
[7] = Half-life in ICR mouse at 1 mg/kg, iv measured after 24 hrs by LC-MS/MS analysis; format: ADME, organism-based; conditions: in vivo
Histone deacetylase 9 = Histone deacetylase 9 (Homo sapiens, UniProt Q9UKV0); experiment: Inhibition of HDAC9 (unknown origin) using Boc-Lys(acetyl)-AMC as substrate preincubated for 1 hrs followed by substrate addition and measured after 2 hrs by spectrophotometer based fluorometric assay
Chain of Histone deacetylase 9 (Q9UKV0 whole entry): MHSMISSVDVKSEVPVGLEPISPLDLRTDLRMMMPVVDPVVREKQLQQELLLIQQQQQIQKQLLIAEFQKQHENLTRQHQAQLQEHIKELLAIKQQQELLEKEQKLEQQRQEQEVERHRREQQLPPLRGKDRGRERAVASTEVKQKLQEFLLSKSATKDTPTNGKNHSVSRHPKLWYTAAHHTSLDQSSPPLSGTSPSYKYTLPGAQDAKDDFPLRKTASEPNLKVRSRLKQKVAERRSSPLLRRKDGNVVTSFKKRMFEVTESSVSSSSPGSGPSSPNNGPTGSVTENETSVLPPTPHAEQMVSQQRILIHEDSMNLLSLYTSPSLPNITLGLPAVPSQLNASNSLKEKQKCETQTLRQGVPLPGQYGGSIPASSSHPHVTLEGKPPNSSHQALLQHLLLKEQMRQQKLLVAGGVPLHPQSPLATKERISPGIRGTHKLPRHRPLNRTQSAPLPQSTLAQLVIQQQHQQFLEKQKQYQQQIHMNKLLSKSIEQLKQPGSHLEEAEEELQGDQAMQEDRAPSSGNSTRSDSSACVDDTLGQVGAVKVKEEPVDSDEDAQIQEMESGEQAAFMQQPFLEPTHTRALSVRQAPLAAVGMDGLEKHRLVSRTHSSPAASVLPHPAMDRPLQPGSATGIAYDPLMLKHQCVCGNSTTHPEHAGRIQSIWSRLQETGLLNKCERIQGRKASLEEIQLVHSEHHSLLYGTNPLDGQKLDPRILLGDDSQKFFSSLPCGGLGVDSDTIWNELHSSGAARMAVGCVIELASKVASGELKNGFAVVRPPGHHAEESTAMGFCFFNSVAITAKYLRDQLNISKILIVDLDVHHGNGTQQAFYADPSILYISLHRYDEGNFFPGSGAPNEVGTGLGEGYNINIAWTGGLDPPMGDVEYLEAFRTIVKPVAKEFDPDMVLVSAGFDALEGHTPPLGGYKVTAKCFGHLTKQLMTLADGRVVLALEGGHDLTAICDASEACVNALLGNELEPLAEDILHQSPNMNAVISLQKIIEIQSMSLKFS

[8] = Stability in human liver microsomes assessed as compound remaining at […] preincubated for 5 mins followed by NADPH addition and measured after 45 mins by LC-MS/MS analysis; format: ADME, Microsome; conditions: time 50 min, read-out: Stability
[9] = Stability in mouse liver microsomes assessed as compound remaining at […] preincubated for 5 mins followed by NADPH addition and measured after 5 mins by LC-MS/MS analysis; format: ADME, Microsome; conditions: time 10 min, read-out: Stability
MDA-MB-231 = experiment: Antiproliferative activity against human MDA-MB-231 cells incubated for 48 hrs by resazurin dye based fluorescence micro plate reader analysis; format: functional, cell-based; conditions: MDA-MB-231, 48 h
JeKo-1 [10] = experiment: Induction of apoptosis in human JeKo-1 cells assessed as necrotic cells at 0.5 uM incubated for 48 hrs by Annexin-V/FITC and PI staining based flow cytometric analysis (reference value: 1.05%); format: functional
[11] = Stability in rat liver microsomes assessed as compound remaining at 0.5 mM preincubated for 5 mins followed by NADPH addition and measured immediately by LC-MS/MS analysis; format: ADME, Microsome; conditions: read-out: Stability
JeKo-1 [12] = experiment: Induction of apoptosis in human JeKo-1 cells assessed as early apoptotic cells at 1 uM incubated for 48 hrs by Annexin-V/FITC and PI staining based flow cytometric analysis (reference value: […]); format: functional
CYP2C9 = CYP2C9 (Homo sapiens, UniProt P11712); experiment: Inhibition of CYP2C9 in human liver microsomes using diclofenac as substrate at 10 uM in presence of NADPH regenerating system by LC-MS/MS analysis relative to control; format: ADME, Microsome; conditions: probe diclofenac
JeKo-1 [13] = experiment: Induction of apoptosis in human JeKo-1 cells assessed as early apoptotic cells at 0.5 uM incubated for 48 hrs by Annexin-V/FITC and PI staining based flow cytometric analysis (reference value: […]); format: functional
Histone deacetylase 11 = Histone deacetylase 11 (Homo sapiens, UniProt Q96DB2); experiment: Inhibition of HDAC11 (unknown origin) using Boc-Lys(acetyl)-AMC as substrate preincubated for 1 hrs followed by substrate addition and measured after 2 hrs by spectrophotometer based fluorometric assay
Chain of Histone deacetylase 11 (Q96DB2 whole entry): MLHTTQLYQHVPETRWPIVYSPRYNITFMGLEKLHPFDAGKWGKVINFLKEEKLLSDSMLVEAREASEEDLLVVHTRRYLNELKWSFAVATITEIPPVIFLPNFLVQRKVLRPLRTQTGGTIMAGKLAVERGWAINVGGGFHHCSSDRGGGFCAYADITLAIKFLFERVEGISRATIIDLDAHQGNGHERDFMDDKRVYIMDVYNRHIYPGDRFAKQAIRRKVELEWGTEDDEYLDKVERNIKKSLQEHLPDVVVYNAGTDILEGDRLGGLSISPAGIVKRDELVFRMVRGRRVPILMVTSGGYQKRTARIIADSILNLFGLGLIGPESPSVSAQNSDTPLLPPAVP

Histone deacetylase 1 = Histone deacetylase 1 (Homo sapiens, UniProt Q13547); experiment: Inhibition of HDAC1 (unknown origin) using Boc-Lys(acetyl)-AMC as substrate preincubated for 1 hrs followed by substrate addition and measured after 2 hrs by spectrophotometer based fluorometric assay
Chain of Histone deacetylase 1 (Q13547 whole entry): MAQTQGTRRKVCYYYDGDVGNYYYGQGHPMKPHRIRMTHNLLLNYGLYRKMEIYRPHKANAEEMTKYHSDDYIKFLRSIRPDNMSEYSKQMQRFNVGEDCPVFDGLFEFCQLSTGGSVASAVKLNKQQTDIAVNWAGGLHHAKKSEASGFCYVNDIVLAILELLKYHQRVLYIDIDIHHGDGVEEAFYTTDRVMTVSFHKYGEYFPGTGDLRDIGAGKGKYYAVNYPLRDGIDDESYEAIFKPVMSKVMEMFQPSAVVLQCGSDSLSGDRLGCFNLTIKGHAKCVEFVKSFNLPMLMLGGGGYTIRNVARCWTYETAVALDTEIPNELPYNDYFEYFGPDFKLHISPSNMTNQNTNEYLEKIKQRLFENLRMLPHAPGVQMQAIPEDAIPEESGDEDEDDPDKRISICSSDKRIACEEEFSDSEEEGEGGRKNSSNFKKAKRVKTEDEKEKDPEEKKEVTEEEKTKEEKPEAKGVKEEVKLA

CYP3A4 = CYP3A4 (Homo sapiens, UniProt P08684); experiment: Inhibition of CYP3A4 in human liver microsomes using bufuralol as substrate at 10 uM in presence of NADPH regenerating system by LC-MS/MS analysis relative to control; format: ADME, Microsome; conditions: probe bufuralol
Chain of CYP3A4 (P08684 whole entry): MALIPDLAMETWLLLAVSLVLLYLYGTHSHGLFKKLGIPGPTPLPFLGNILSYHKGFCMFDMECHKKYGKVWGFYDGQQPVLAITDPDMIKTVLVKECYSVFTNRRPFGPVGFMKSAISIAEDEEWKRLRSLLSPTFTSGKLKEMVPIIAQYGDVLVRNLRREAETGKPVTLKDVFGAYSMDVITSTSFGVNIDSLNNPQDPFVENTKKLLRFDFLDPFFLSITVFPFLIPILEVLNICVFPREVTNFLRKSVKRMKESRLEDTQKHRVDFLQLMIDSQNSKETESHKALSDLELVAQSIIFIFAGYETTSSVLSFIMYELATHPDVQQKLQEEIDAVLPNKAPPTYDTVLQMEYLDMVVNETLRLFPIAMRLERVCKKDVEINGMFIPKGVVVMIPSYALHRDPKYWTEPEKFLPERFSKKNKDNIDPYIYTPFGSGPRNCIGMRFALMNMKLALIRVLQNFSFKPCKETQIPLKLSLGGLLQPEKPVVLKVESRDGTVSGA

[14] = Stability in human liver microsomes assessed as compound remaining at […] preincubated for 5 mins followed by NADPH addition and measured after 30 mins by LC-MS/MS analysis; format: ADME, Microsome; conditions: time 35 min, read-out: Stability
MM1.S = experiment: Antiproliferative activity against human MM1.S cells incubated for 48 hrs by resazurin dye based fluorescence micro plate reader analysis; format: functional, cell-based
[15] = Stability in mouse liver microsomes assessed as compound remaining at […] preincubated for 5 mins followed by NADPH addition and measured after 45 mins by LC-MS/MS analysis; format: ADME, Microsome; conditions: time 50 min, read-out: Stability
[16] = target: Protein deacetylase HDAC6 (Homo sapiens, UniProt Q9UBN7); experiment: Inhibition of HDAC6 (unknown origin) using Boc-Lys(acetyl)-AMC as substrate preincubated for 1 hrs followed by substrate addition and measured after 2 hrs by spectrophotometer based fluorometric assay
JeKo-1 [17] = experiment: Induction of apoptosis in human JeKo-1 cells assessed as viable cells at 0.25 uM incubated for 48 hrs by Annexin-V/FITC and PI staining based flow cytometric analysis (reference value: 94.1%); format: functional; conditions: read-out: Activity
[18] = Stability in mouse liver microsomes assessed as half-life at […] preincubated for 5 mins followed by NADPH addition and measured upto 45 mins by LC-MS/MS analysis; format: ADME, Microsome; conditions: time < 50 min
CYP2B6 = CYP2B6 (Homo sapiens, UniProt P20813); experiment: Inhibition of CYP2B6 in human liver microsomes using bupropion as substrate at 10 uM in presence of NADPH regenerating system by LC-MS/MS analysis relative to control; format: ADME, Microsome; conditions: probe bupropion

Chain of Histone deacetylase 7 (Q8WUI4 whole entry): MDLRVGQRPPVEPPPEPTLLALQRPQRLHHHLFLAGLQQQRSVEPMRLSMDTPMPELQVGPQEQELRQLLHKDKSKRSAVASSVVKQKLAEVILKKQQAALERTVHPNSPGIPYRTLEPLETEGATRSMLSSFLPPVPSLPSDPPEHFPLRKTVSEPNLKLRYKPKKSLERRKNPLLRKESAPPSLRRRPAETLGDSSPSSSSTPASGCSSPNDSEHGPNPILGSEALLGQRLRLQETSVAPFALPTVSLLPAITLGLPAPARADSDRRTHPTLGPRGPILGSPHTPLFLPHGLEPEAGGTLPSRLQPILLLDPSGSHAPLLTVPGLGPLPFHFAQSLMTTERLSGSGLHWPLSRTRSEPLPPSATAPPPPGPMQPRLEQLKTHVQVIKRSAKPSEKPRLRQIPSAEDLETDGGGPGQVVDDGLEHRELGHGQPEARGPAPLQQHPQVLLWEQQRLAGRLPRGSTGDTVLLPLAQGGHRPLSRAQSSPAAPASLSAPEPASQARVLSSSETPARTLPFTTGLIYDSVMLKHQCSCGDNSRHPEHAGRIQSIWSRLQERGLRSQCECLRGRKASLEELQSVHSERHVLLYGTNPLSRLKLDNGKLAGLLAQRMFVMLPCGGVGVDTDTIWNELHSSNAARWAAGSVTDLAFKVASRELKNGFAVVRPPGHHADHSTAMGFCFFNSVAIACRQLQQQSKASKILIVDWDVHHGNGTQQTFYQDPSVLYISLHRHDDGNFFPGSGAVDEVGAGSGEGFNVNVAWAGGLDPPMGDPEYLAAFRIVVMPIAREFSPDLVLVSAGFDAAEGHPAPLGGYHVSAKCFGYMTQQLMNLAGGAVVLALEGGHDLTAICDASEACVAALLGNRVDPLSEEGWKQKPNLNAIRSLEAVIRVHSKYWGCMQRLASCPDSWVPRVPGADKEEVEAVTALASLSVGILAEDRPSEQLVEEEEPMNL

Structure (SMILES): COc1nc(-c2ccc(NC(=O)Nc3ccc(C(=O)NCCCCCC(=O)Nc4ccccc4N)cc3)cc2)nc(N2CCOCC2)n1
- IC50 (Histone deacetylase 7): > 10000 nM
- inhibition at 30 µM (hERG): 15.2%
- inhibition at 10 µM (CYP2D6): 48.8%
- IC50 (Histone deacetylase 5): > 10000 nM
- IC50 at 48 h [1]: > 100000 nM
- remaining at 0.75 h [2]: 40.2%
- inhibition (JeKo-1 [3]): Dose-Dependent Effect
- inhibition at 10 µM (CYP2C19): 14%
- IC50 [4]: 20.3 nM
- viability at 0.5 µM (JeKo-1 [5]): 48.8%
- viability at 1 µM (JeKo-1 [6]): 3.29%
- half-life [7]: 10 h
- IC50 (Histone deacetylase 9): > 10000 nM
- remaining at 0.75 h [8]: 35.8%
- remaining at 5 min [9]: 94%
- IC50 (MDA-MB-231): 1500 nM
- Activity (JeKo-1 [10]): 0.49%
- remaining at 0 min [11]: 100%
- Activity (JeKo-1 [12]): 26.1%
- inhibition at 10 µM (CYP2C9): 37.4%
- Activity (JeKo-1 [13]): 17.8%
- IC50 (Histone deacetylase 11): > 10000 nM
- IC50 (Histone deacetylase 1): 306 nM
- inhibition at 10 µM (CYP3A4): 32.5%
- remaining at 0.5 h [14]: 46.9%
- IC50 (MM1.S): 2900 nM
- remaining at 0.75 h [15]: 32.8%
- IC50 [16]: > 10000 nM
- viability at 0.25 µM (JeKo-1 [17]): 78.5%
- half-life [18]: 0.449 h
- inhibition at 10 µM (CYP2B6): 35.6%
